How the values were obtained:
Settings in all cases: 72 h
[1] = test system: myeloid leukemia patient primary cells Pat.10; assay: cell viability (% survival relative to DMSO control); higher = less cytotoxic
How it was run: (§1)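 Seventy compounds were pre-printed on 384-well plates at five tenfold concentrations between 1 and 10,000 nM, in duplicate. Thawed mononuclear cells purified by Ficoll from AML or CML patients were added at 10,000 cells/well in RPMI 1640 with 10% FBS for 72 h. Viability by CellTiter-Glo was normalised to DMSO and 10 μM proteasome-inhibitor wells. Where stated, area under the curve was taken from log-logistic fits made with the drc and PharmacoGx R packages, each fit having four parameters.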

[2] = test system: myeloid leukemia patient primary cells Pat.11; assay: as above
How it was run: as §1

[3] = test system: myeloid leukemia patient primary cells Pat.12; assay: as above
How it was run: as §1

[4] = test system: myeloid leukemia patient primary cells Pat.13; assay: as above
How it was run: as §1

[5] = test system: myeloid leukemia patient primary cells Pat.14; assay: as above
How it was run: as §1

[6] = test system: myeloid leukemia patient primary cells Pat.15; assay: as above
How it was run: as §1

[7] = test system: myeloid leukemia patient primary cells Pat.1; assay: as above
How it was run: as §1

[8] = test system: myeloid leukemia patient primary cells Pat.2; assay: as above
How it was run: as §1

[9] = test system: myeloid leukemia patient primary cells Pat.3; assay: as above
How it was run: as §1

[10] = test system: myeloid leukemia patient primary cells Pat.4; assay: as above
How it was run: as §1

[11] = test system: myeloid leukemia patient primary cells Pat.5; assay: as above
How it was run: as §1

[12] = test system: myeloid leukemia patient primary cells Pat.6; assay: as above
How it was run: as §1

[13] = test system: myeloid leukemia patient primary cells Pat.7; assay: as above
How it was run: as §1

[14] = test system: myeloid leukemia patient primary cells Pat.8; assay: as above
How it was run: as §1

[15] = test system: myeloid leukemia patient primary cells Pat.9; assay: as above
How it was run: as §1

[16] = test system: myeloid leukemia patient primary cells Pat.10; assay: area under dose-response curve (viability, 1 nM-10 uM) (fraction (0-1)); higher = more sensitive
Procedure: (§2)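 AUC (0–1, higher = more sensitive) of the 5-point dose–response (1 nM–10 µM, 72 h, CellTiter-Glo) in primary AML/CML patient mononuclear cells. 0.030103 is the floor for inactive compounds.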

[17] = test system: myeloid leukemia patient primary cells Pat.11; assay: as above
Procedure: as §2

[18] = test system: myeloid leukemia patient primary cells Pat.12; assay: as above
Procedure: as §2

[19] = test system: myeloid leukemia patient primary cells Pat.13; assay: as above
Procedure: as §2

[20] = test system: myeloid leukemia patient primary cells Pat.14; assay: as above
Procedure: as §2

[21] = test system: myeloid leukemia patient primary cells Pat.15; assay: as above
Procedure: as §2

[22] = test system: myeloid leukemia patient primary cells Pat.1; assay: as above
Procedure: as §2

[23] = test system: myeloid leukemia patient primary cells Pat.2; assay: as above
Procedure: as §2

[24] = test system: myeloid leukemia patient primary cells Pat.3; assay: as above
Procedure: as §2

[25] = test system: myeloid leukemia patient primary cells Pat.4; assay: as above
Procedure: as §2

[26] = test system: myeloid leukemia patient primary cells Pat.5; assay: as above
Procedure: as §2

[27] = test system: myeloid leukemia patient primary cells Pat.6; assay: as above
Procedure: as §2

[28] = test system: myeloid leukemia patient primary cells Pat.7; assay: as above
Procedure: as §2

[29] = test system: myeloid leukemia patient primary cells Pat.8; assay: as above
Procedure: as §2

[30] = test system: myeloid leukemia patient primary cells Pat.9; assay: as above
Procedure: as §2

[31] = test system: BV-173
How it was run: (§3)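 Each of fifteen myeloid leukaemia cell lines was seeded in RPMI 1640 at a density titrated to its linear growth range. The cells were incubated for 72 h at 37 °C and 5% CO2 with compounds at five tenfold doses from 1 to 10,000 nM, in duplicate. After ATP luminescence was normalised to vehicle and to a positive control at 10 µM, four-parameter log-logistic curves were fitted. These curves gave the IC50.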

[32] = test system: HEL
How it was run: as §3

[33] = test system: HL-60
How it was run: as §3

[34] = test system: K-562
How it was run: as §3

[35] = test system: KCL-22
How it was run: as §3

[36] = test system: KG-1
How it was run: as §3

[37] = test system: KU-812
How it was run: as §3

[38] = test system: LAMA-84
How it was run: as §3

[39] = test system: ML-2
How it was run: as §3

[40] = test system: MOLM-13
How it was run: as §3

[41] = test system: MV4-11
How it was run: as §3

[42] = test system: Mono-Mac-6
How it was run: as §3

[43] = test system: NOMO-1
How it was run: as §3

[44] = test system: SHI-1
How it was run: as §3

[45] = test system: THP-1
How it was run: as §3

[46] = test system: BV-173; assay: cell viability (% survival relative to DMSO control, bortezomib = 0%); higher = less cytotoxic
How it was run: (§4)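 Percent survival is reported as the mean of duplicate wells. Cells from 10 AML and 5 CML lines were plated in 384-well plates containing compounds at 1, 10, 100, 1000 or 10000 nM and kept for 72 h at 37 °C in 5% CO2. Readout used CellTiter-Glo luminescence, scaled so that vehicle equals 100% and a 10 µM positive control equals 0%.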

[47] = test system: HEL; assay: as above
How it was run: as §4

[48] = test system: HL-60; assay: as above
How it was run: as §4

[49] = test system: K-562; assay: as above
How it was run: as §4

[50] = test system: KCL-22; assay: as above
How it was run: as §4

[51] = test system: KG-1; assay: as above
How it was run: as §4

[52] = test system: KU-812; assay: as above
How it was run: as §4

[53] = test system: LAMA-84; assay: as above
How it was run: as §4

[54] = test system: ML-2; assay: as above
How it was run: as §4

[55] = test system: MOLM-13; assay: as above
How it was run: as §4

[56] = test system: MV4-11; assay: as above
How it was run: as §4

[57] = test system: Mono-Mac-6; assay: as above
How it was run: as §4

[58] = test system: NOMO-1; assay: as above
How it was run: as §4

[59] = test system: SHI-1; assay: as above
How it was run: as §4

[60] = test system: THP-1; assay: as above
How it was run: as §4

CC(C)c1onc(-c2c(Cl)cccc2Cl)c1COc1ccc(/C=C/c2cccc(C(=O)O)c2)c(Cl)c1 [GW 4064]
cell viability [%]
Settings | 1 nM | 10 nM | 100 nM | 1000 nM | 10000 nM
[1] | 61.6 | 86.6 | 38.4 | 8.43 | 9.05
[2] | 96.4 | 95.9 | 99.3 | 90.6 | 74.3
[3] | 92.5 | 94.8 | 97.5 | 95.5 | 89.8
[4] | 99.3 | 88.8 | 78.5 | 81.7 | 52.7
[5] | 84.9 | 69.6 | 66 | 63.2 | 2.05
[6] | 92.6 | 95.2 | 95.5 | 98 | 89.7
[7] | > 100 | 91.2 | 95.4 | 99.2 | 68.8
[8] | 98.1 | 94.5 | 84.4 | 96.8 | 92.7
[9] | 83.5 | 78.7 | 86.3 | 16.1 | 0.177
[10] | 81.1 | 92 | 96.4 | 91.2 | 64
[11] | 80.1 | 49.1 | 67.6 | 2.27 | 0.265
[12] | > 100 | 94.1 | 99.2 | 92.7 | 62.8
[13] | 64.4 | 67.8 | 67.5 | 40.3 | < 0
[14] | 91.6 | 88.4 | 64 | 90.2 | 81.9
[15] | 59.1 | 40.4 | 48.8 | 3.95 | < 0

Settings | area under dose-response curve
[16] | 0.473
[17] | < 0.0301
[18] | < 0.0301
[19] | 0.0666
[20] | 0.18
[21] | < 0.0301
[22] | < 0.0301
[23] | < 0.0301
[24] | 0.323
[25] | < 0.0301
[26] | 0.413
[27] | 0.0544
[28] | 0.278
[29] | < 0.0301
[30] | 0.539

COc1cc(/C=C/c2ccc(OC)cc2OC)cc(OC)c1 [2,3',4,5'-Tetramethoxystilbene]
Settings | IC50 (cell viability) [µM]
[31] | > 10
[32] | > 10
[33] | > 10
[34] | > 10
[35] | > 10
[36] | > 10
[37] | > 10
[38] | > 10
[39] | > 10
[40] | > 10
[41] | > 10
[42] | > 10
[43] | > 10
[44] | > 10
[45] | > 10

cell viability [%]
Settings | 1 nM | 10 nM | 100 nM | 1000 nM | 10000 nM
[46] | 104 | 104 | 99.1 | 103 | 79.6
[47] | 106 | 106 | 99.2 | 103 | 106
[48] | 109 | 86.2 | 96.2 | 105 | 81.2
[49] | 108 | 113 | 106 | 101 | 89.5
[50] | 94.7 | 110 | 98.7 | 106 | 104
[51] | 94.9 | 110 | 91.9 | 101 | 79.7
[52] | 101 | 95.5 | 96.9 | 97.4 | 76.8
[53] | 103 | 104 | 99.4 | 96.4 | 94.3
[54] | 80.1 | 102 | 102 | 115 | 72.9
[55] | 105 | 105 | 86.4 | 107 | 100
[56] | 103 | 106 | 98.4 | 98.4 | 86
[57] | 94.6 | 97.2 | 95.3 | 100 | 104
[58] | 97.5 | 106 | 95.7 | 108 | 94.9
[59] | 99.7 | 123 | 99.4 | 104 | 98.9
[60] | 97.3 | 107 | 108 | 109 | 75.3

CCn1c(=O)/c(=C2\Sc3ccccc3N2C)s/c1=C\c1cccc[n+]1CC.[Cl-] [MKT-077]
cell viability [%]
Settings | 1 nM | 10 nM | 100 nM | 1000 nM | 10000 nM
[1] | 35.1 | 83.7 | > 100 | 54.6 | 67.1
[2] | 96.9 | 95.6 | 99.3 | > 100 | 88.3
[3] | 95.4 | 95.7 | 97 | 97.5 | 91.4
[4] | 85.3 | 83.5 | 92.6 | 88.8 | 72.1
[5] | 49.3 | 84.2 | > 100 | 100 | 61.8
[6] | 86.1 | 93.1 | 87.2 | 98.8 | 82.1
[7] | 88.7 | 75.1 | 99.5 | 96.7 | 79.3
[8] | 93.4 | 99.4 | 98.1 | 99.9 | 85.4
[9] | 46.3 | 84.2 | > 100 | > 100 | 80.4
[10] | 92.1 | 92.2 | 99.6 | 83.8 | 61.6
[11] | 2.39 | 85 | 95.2 | 69.1 | 27.4
[12] | 86.5 | > 100 | > 100 | 97.5 | 76.2
[13] | 60.4 | 97.6 | 87.8 | 78.2 | 63.4
[14] | 71.5 | 87.3 | 95.1 | 82.5 | 67.2
[15] | 7.21 | 82.2 | 86.3 | 78.1 | 48

Settings | area under dose-response curve
[17] | < 0.0301
[18] | < 0.0301
[19] | 0.0334
[20] | < 0.0301
[21] | < 0.0301
[22] | < 0.0301
[23] | < 0.0301
[24] | < 0.0301
[26] | 0.119
[27] | 0.0306
[28] | 0.0538
[29] | 0.0466
[30] | 0.0402

Reference: the supplement of paper PMC8671470
